Tests used:
Assay in all cases: relative viability (nuclei count vs DMSO), 5 days (fraction); higher = more cells survive
[1] = compound: CCN(CCO)CCCC(C)Nc1ccnc2cc(Cl)ccc12 [Hydroxychloroquine] + COc1cc2c(Oc3ccc(NC(=O)C4(C(=O)Nc5ccc(F)cc5)CC4)cc3F)ccnc2cc1OCCCN1CCOCC1 [Foretinib] (partner 0.25 µM)
Summary of the method: (§1)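 Dosing by pin tool came one day after lung cancer cell lines were seeded in 1536-well plates, using either one drug or a fixed anchor-drug dose plus five library-drug doses (not always all listed) in √10 steps. After 5 days, nuclei were counted on 4× images. Relative viability is treated-well nuclei count divided by vehicle-well nuclei count, and values are medians of duplicate plates.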

[2] = compound: CCN(CCO)CCCC(C)Nc1ccnc2cc(Cl)ccc12 [Hydroxychloroquine] + O=C(CCCCCCC(=O)Nc1ccccc1)NO [Vorinostat] (partner 1 µM)
Summary of the method: as §1

[3] = compound: CCN(CCO)CCCC(C)Nc1ccnc2cc(Cl)ccc12 [Hydroxychloroquine] + NC(=O)Nc1cc(-c2cccc(F)c2)sc1C(=O)N[C@H]1CCCNC1 [AZD7762] (partner 0.2 µM)
Summary of the method: as §1

[4] = compound: CCN(CCO)CCCC(C)Nc1ccnc2cc(Cl)ccc12 [Hydroxychloroquine] + CS(=O)(=O)N1CCN(Cc2cc3nc(-c4cccc5[nH]ncc45)nc(N4CCOCC4)c3s2)CC1 [Pictilisib] (partner 1 µM)
Summary of the method: as §1

Cell Line	relative viability ([1]; first compound 0.5 µM)	relative viability ([1]; first compound 1.581 µM)	relative viability ([1]; first compound 5 µM)	relative viability ([1]; first compound 15.81 µM)	relative viability ([1]; first compound 50 µM)	relative viability ([2]; first compound 0.5 µM)	relative viability ([2]; first compound 1.581 µM)	relative viability ([2]; first compound 5 µM)	relative viability ([2]; first compound 15.81 µM)	relative viability ([2]; first compound 50 µM)	relative viability ([3]; first compound 0.5 µM)	relative viability ([3]; first compound 1.581 µM)	relative viability ([3]; first compound 5 µM)	relative viability ([3]; first compound 15.81 µM)	relative viability ([3]; first compound 50 µM)	relative viability ([4]; first compound 0.5 µM)	relative viability ([4]; first compound 1.581 µM)	relative viability ([4]; first compound 5 µM)	relative viability ([4]; first compound 15.81 µM)	relative viability ([4]; first compound 50 µM)
NCI-H2087	1.21	1.21	1.18	1.11	0.972	0.719	0.74	0.778	0.798	0.609	1.33	1.19	1.46	1.32	1.48	0.891	0.879	0.798	0.919	0.721
LU99A	0.914	0.724	0.786	0.789	0.861	0.559	0.474	0.465	0.435	0.507	0.427	0.367	0.533	0.393	0.317	0.367	0.288	0.337	0.28	0.362
NCI-H1355	0.941	0.965	0.956	1.02	0.979	0.657	0.582	0.631	0.63	0.657	0.747	0.795	0.679	0.72	0.81	0.475	0.362	0.461	0.485	0.471
NCI-H596	0.758	0.669	0.875	0.823	0.855	0.612	0.765	0.523	0.398	0.587	0.924	0.902	1.14	1.11	1.05	0.386	0.406	0.32	0.367	0.399
NCI-H727	0.752	0.767	0.735	0.794	0.922	1.07	1.22	1.23	0.969	1.33	0.845	0.698	0.655	0.599	0.523	0.389	0.339	0.444	0.325	0.371
NCI-H661	0.998	0.992	1.01	1	1.05	0.827	0.828	0.782	0.802	0.782	–	–	–	–	–	0.472	0.413	0.406	0.384	0.358
NCI-H650	1.04	0.888	0.983	1.03	0.97	0.478	0.432	0.397	0.42	0.478	1.07	1.05	0.924	0.956	0.986	0.867	0.758	–	1.01	0.827
201T	1.21	1.05	1.03	1.2	1.2	0.954	0.943	1.02	0.929	1.07	0.571	0.809	0.759	0.59	0.658	0.687	0.555	0.641	0.631	0.698
UMC-11	–	0.978	1.12	1.04	1.19	0.4	0.314	0.387	0.393	0.457	–	–	–	–	–	0.843	0.542	0.752	0.844	1.03
COR-L23	1.04	0.993	1.02	0.994	1.18	0.409	0.455	0.545	0.453	0.415	–	–	–	–	–	0.585	0.84	0.875	0.899	0.968
SW 1573	1.06	0.774	1.08	0.686	0.871	0.689	0.627	0.878	0.734	0.951	–	–	–	–	–	0.484	0.392	0.535	0.528	0.603
NCI-H1650	0.996	1.01	1.02	0.999	1.15	0.48	0.593	0.634	0.663	0.608	–	–	–	–	–	0.558	0.578	0.49	0.542	0.599
SK-MES-1	0.883	0.822	1.04	0.901	0.792	1.33	0.882	1.2	1.23	1.27	–	–	–	–	–	0.4	0.373	0.321	0.342	0.359
NCI-H2009	1.19	1.21	1.24	1.16	1.18	0.764	0.718	0.75	0.747	0.729	–	–	–	–	–	0.844	0.776	0.901	0.803	0.989
NCI-H2023	0.806	0.739	0.749	0.779	0.776	0.788	0.574	0.687	0.706	0.85	–	–	–	–	–	0.332	0.23	0.23	0.224	0.249
COR-L 105	0.896	1.11	0.951	1.23	0.997	0.87	0.807	0.628	0.743	0.804	–	–	–	–	–	0.392	0.435	0.425	0.325	0.338
NCI-H1563	0.886	0.804	0.88	0.825	0.965	–	–	–	–	–	–	–	–	–	–	0.694	0.605	0.574	0.627	0.596
EBC-1	0.122	0.093	0.0998	0.11	0.132	–	–	–	–	–	–	–	–	–	–	0.367	0.307	0.374	0.354	0.295
SK-LU-1	0.849	0.769	0.834	0.787	0.926	0.779	0.719	0.804	0.799	0.643	–	–	–	–	–	0.567	0.529	0.568	0.474	0.543
Calu-6	0.922	0.855	0.888	0.872	0.879	–	–	–	–	–	–	–	–	–	–	0.997	0.785	0.949	0.962	0.986
HCC-44	–	–	–	–	–	1.1	1.09	1.14	1.1	1.14	1.07	1.04	1.08	1.06	0.975	0.475	0.61	0.588	0.552	0.661
